Laboratory results: patent publication US11879140B2, “P21 mRNA targeting DNAzymes” (1E Therapeutics Ltd., priority 2020, dated 2024)
“Also recorded” adds a separate entry of the source.

Tests used:
HepG2 cells = test: Chemotherapy and DNAzyme combination, HepG2; format: cell-based
Source text: (§1) PANC-1 cells were maintained in DMEM medium supplemented with 10% fetal bovine serum, 1% penicillin-streptomycin and 1% sodium pyruvate. HCT116 cells were maintained in McCoy's 5A medium supplemented with 10% fetal bovine serum and 1% penicillin-streptomycin. A549 cells were maintained in F-12K Medium supplemented with 10% fetal bovine serum and 1% penicillin-streptomycin. HepG2 cell were maintained Eagle's Minimum Essential Medium, supplemented in 10% fetal bovine serum, 1% penicillin-streptomycin and 1% sodium pyruvate. All cancer cell lines were incubated in 5% C02 at 37° C.
(§2) Cancer cell lines were seeded in 96 well plates 24 hours before treatment. Chemotherapies were applied at indicated concentrations either alone or as combination with DNAzyme-lipofectamine complex. 72 hours following treatment, cell viability was measured using Prestoblue® reagent. Chemotherapies were diluted in cell medium to the indicated concentrations. 24 hours following seeding, culture medium was replaced with chemotherapy containing medium, immediately followed by transfection of DNAzyme as described above. 72 hours following treatment, cell viability was measured using Prestoblue® reagent.
(§3) The following chemotherapies were used: Etoposide (Sigma), Palbociclib (Sigma), Doxorubicin (Sigma), Cisplatin (Sigma), ABT-263 (Selleckchem). All compounds were dissolved and stored according to manufacturer instructions.

p21 protein [1] = test: p21 protein staining in HepG2 cells; format: cell-based, human; details: Etoposide alone or together with DNAzyme (FIGS. 15A-B)
Method: Alternatively, cells were fixed with 4% Formaldehyde for 15 minutes, permeabilized in 0.2% […] for 5 minutes and blocked with 2% bovine serum albumin (BSA) for 30 min in room temperature. Cells were then incubated with a primary or with a conjugated antibody over-night or for 3 hours respectively. For unconjugated antibodies, a corresponding fluorescently-labelled secondary antibody was added for 1 hour, followed by Hoechst counterstaining. Cells were washed with PBS three times following each step. Images were acquired using Nikon Eclipse Ti2 microscope at ×10 magnification.
Antibodies were diluted in blocking solution as indicated below: 53BP1 antibody (Novus biologicals NB100-304, 1:800), Phospho-histone H2AX antibody (Cell signaling #2577, 1:800), p21 Waf1/Cip1 antibody (Cell signaling #8865, 1:500), p16 antibody (Santa Cruz sc-56330, 1:200), Alexa Fluor-488 goat anti mouse (Thermo Fisher A11029, 1:1000).

p21 mRNA = test: Quantitative RT-PCR of p21 mRNA in senescent cells; format: cell-based, human; details: over 24 hours following treatment, 2000 nM (FIG. 5D)
Method: Total RNA was extracted from IMR-90 cells using NucleoSpin® RNA (Macherey-Nagel™), according to the manufacturer protocol. Complementary DNA was prepared using the M-MLV Reverse Transcriptase (Promega), according to the manufacturer protocol. Quantitative real-time PCR was performed using the SYBR Green PCR master-mix (Applied Biosystems) on a CFX96 Real-Time PCR System (Bio Rad). See primer sequences in Table 1, above.

cancer cells (A549) = test: Dose response on A549 cancer cells; format: cell-based; details: A549, scramble versus DNAzyme 1670 (FIG. 16B)
Source text: as §1, §2

[2] = system: cancer cell lines (HepG2, A549, Panc1, HCT-116); test: Chemotherapy and DNAzyme combination, several cancer cell lines; format: cell-based; details: therapy induced senescence, viability 72 hours following treatment (FIG. 12F)
Source text: as §1, §2, §3

[3] = DNAzyme stability analysis in BALF; format: in vitro ADME, mice
Method: (§4) DNAzyme stability was assessed by incubation with PBS, plasma and BALF (Bronchoalveolar Lavage Fluid). A comparison between unmodified and 3′Inverted dT modification was made. Following incubation for the indicated time points, samples were analyzed using gel electrophoresis. Quantification compared to time 0 was performed using Image Lab software (Bio Rad).

p21 protein [4] = test: p21 protein in HepG2 cell lysate (IF and ELISA); format: cell-based, human; details: Etoposide alone or with scramble or DNAzyme 1670 (FIGS. 15B-C)
Method: p21 protein quantification was analyzed using (Human p21 ELISA Kit—ab214658, Abcam), according to the manufacturer's instructions. The cell pellets were incubated with Cell Extraction Buffer PTR on ice for 20 minutes. Following Centrifuge at 18,000×g for 20 minutes, the sample protein concentrations were quantified using a BCA protein assay. The samples and Antibody Cocktail were added to appropriate wells and incubated for one hour at room temperature (RT), followed by three washes with Wash Buffer and incubation with TMB Development Solution for 15 minutes at RT. Then, the Stop Solution was added, the samples were incubated for 1 minute, and the samples were read by absorbance at 450 nm using plate reader.

[5] = DNAzyme stability analysis in serum; format: in vitro ADME
Method: as §4

human p21 mRNA = test: In vitro cleavage assay of human p21 mRNA; format: biochemical; details: in vitro cleavage of p21 mRNA (SEQ ID NO: 1); RNA substrate 500 nM, 37° C. 60 min, agarose gel
In short: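 RNA substrates were T7 in vitro transcripts from PCR-amplified cDNA (source RNA: senescent IMR-90 cells), gel-purified. Substrate at 500 nM final was incubated with DNAzyme (10 μM stock) in reaction buffer (10× stock: 50 mM Tris-HCl pH 7.4, 100 mM NaCl, 10 mM MgCl2) for 60 min at 37 °C. Cleavage products were resolved on 1.5% agarose TBE gels and quantified by densitometry.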

[6] = unmodified DNAzyme, from the start of incubation (FIG. 13A)

Substance: DNAzyme 1670: SEQ ID NO: 54: GGGAAAGGAggctagctacaacgaAAGGGGGAG (DNA GGGAAAGGAGGCTAGCTACAACGAAAGGGGGAG; DNA, backbone and methylation of C not given here)
- sub-clinical doses of various chemotherapies in combination with DNAzyme, synergy (HepG2 cells; HepG2 (FIG. 12G)): synergistic activity
- combination treatment of Etoposide and DNAzyme, synergy (HepG2 cells; liver cancer cell line HepG2 (FIG. 12F)): good synergistic results
- p21 protein immunofluorescent staining in HepG2 cells (p21 protein [1]): significant decrease in staining; also recorded: p21 upregulation is blocked
- p21 mRNA knockdown (p21 mRNA): 57%
- senolytic effect, dose response (cancer cells (A549)): senolytic effect in a wide range of doses; also recorded: effective at much lower concentration
- efficacy of sub-clinical Etoposide in combination with DNAzyme [2]: comparable to that of clinical Etoposide dose
- stability in BALF of diseased (bleomycin) mice compared to naive BALF ([3]; FIG. 13C): lower
- start of reduction in size (below full length) in BALF [3, 6]: 24 h
- time to degradation / stability in BALF ([3]; with 3′ inverted dT modification versus unmodified (FIGS. 7B, 13C)): significantly increased
- p21 protein in cell lysate (p21 protein [4]): can counteract the upregulation in p21 levels
- time to complete degradation in serum [5, 6]: 48 h
- time to degradation in serum ([5]; with 3′ inverted dT modification versus unmodified (FIG. 13B)): significantly increased
- Validated cleavage (human p21 mRNA): time and concentration dependent; also recorded: validated for mediating cleavage of p21 mRNA
